Test results: the supplement of paper PMC10307832

Assays:
Experiment in all cases: relative viability (nuclei count vs DMSO), 5 days (fraction); higher = more cells survive
[1] = test system: EBC-1
How it was run: (§1)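 Lung cancer cell lines were pin-tool dosed in 1536-well plates on the day after seeding, with either a lone drug or a fixed anchor-drug dose plus five library-drug doses (not always all listed) in √10 steps. Nuclei were counted on 4× images after 5 days. Relative viability is the ratio of treated-well to vehicle-well nuclei counts, with each value a median of duplicate plates.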

[2] = test system: NCI-H1299
How it was run: as §1

[3] = test system: NCI-H1703
How it was run: as §1

[4] = test system: A549
How it was run: as §1

[5] = test system: HCC-78
How it was run: as §1

[6] = test system: Calu-6
How it was run: as §1

[7] = test system: IA-LM
How it was run: as §1

[8] = test system: NCI-H2342
How it was run: as §1

[9] = test system: NCI-H522
How it was run: as §1

[10] = test system: NCI-H1648
How it was run: as §1

[11] = test system: NCI-H2009
How it was run: as §1

[12] = test system: NCI-H661
How it was run: as §1

[13] = test system: NCI-H460
How it was run: as §1

[14] = test system: NCI-H1623
How it was run: as §1

`O=c1cc(-c2cccc3c2Sc2ccccc2S3)oc(N2CCOCC2)c1` + O=C(c1cc(Cc2n[nH]c(=O)c3ccccc23)ccc1F)N1CCN(C(=O)C2CC2)CC1 [Olaparib] (partner 8 µM) was tested, and the relative viability ([1]; first compound 0.08 µM) was 0.618, the relative viability ([1]; first compound 0.253 µM) was 0.831 and the relative viability ([1]; first compound 0.8 µM) was 0.732. It also gave a relative viability ([1]; first compound 2.53 µM) of 0.619, a relative viability ([1]; first compound 8 µM) of 0.324 and a relative viability ([2]; first compound 0.08 µM) of 0.951. For the same compound, the relative viability ([2]; first compound 0.253 µM) was 1.05, the relative viability ([2]; first compound 0.8 µM) was 1.04 and the relative viability ([2]; first compound 2.53 µM) was 1.02. It also gave a relative viability ([2]; first compound 8 µM) of 0.909, a relative viability ([3]; first compound 0.08 µM) of 0.314 and a relative viability ([3]; first compound 0.253 µM) of 0.445. The relative viability ([3]; first compound 0.8 µM) was 0.406, the relative viability ([3]; first compound 2.53 µM) was 0.246 and the relative viability ([3]; first compound 8 µM) was 0.227. For the same compound, the relative viability ([4]; first compound 0.08 µM) was 0.224, the relative viability ([4]; first compound 0.253 µM) was 0.348 and the relative viability ([4]; first compound 0.8 µM) was 0.277. For the same compound, the relative viability ([4]; first compound 2.53 µM) was 0.354, the relative viability ([4]; first compound 8 µM) was 0.363 and the relative viability ([5]; first compound 0.08 µM) was 0.792. It also gave a relative viability ([5]; first compound 0.253 µM) of 0.853, a relative viability ([5]; first compound 0.8 µM) of 0.935 and a relative viability ([5]; first compound 2.53 µM) of 0.839. The relative viability ([5]; first compound 8 µM) was 0.734, the relative viability ([6]; first compound 0.08 µM) was 0.63 and the relative viability ([6]; first compound 0.253 µM) was 0.636. For the same compound, the relative viability ([6]; first compound 0.8 µM) was 0.601, the relative viability ([6]; first compound 2.53 µM) was 0.599 and the relative viability ([6]; first compound 8 µM) was 0.549. It also gave a relative viability ([7]; first compound 0.08 µM) of 0.848, a relative viability ([7]; first compound 0.253 µM) of 1.07 and a relative viability ([7]; first compound 0.8 µM) of 0.934. The relative viability ([7]; first compound 2.53 µM) was 0.796, the relative viability ([7]; first compound 8 µM) was 0.866 and the relative viability ([8]; first compound 0.08 µM) was 0.52. The relative viability ([8]; first compound 0.253 µM) was 0.419, the relative viability ([8]; first compound 0.8 µM) was 0.476 and the relative viability ([8]; first compound 2.53 µM) was 0.471. The relative viability ([8]; first compound 8 µM) was 0.423, the relative viability ([9]; first compound 0.08 µM) was 0.615 and the relative viability ([9]; first compound 0.253 µM) was 0.621. It also gave a relative viability ([9]; first compound 0.8 µM) of 0.612, a relative viability ([9]; first compound 2.53 µM) of 0.723 and a relative viability ([9]; first compound 8 µM) of 0.576. The relative viability ([10]; first compound 0.253 µM) was 1.01, the relative viability ([10]; first compound 0.8 µM) was 0.781 and the relative viability ([10]; first compound 8 µM) was 1.2. For the same compound, the relative viability ([11]; first compound 0.08 µM) was 0.746, the relative viability ([11]; first compound 0.253 µM) was 0.731 and the relative viability ([11]; first compound 0.8 µM) was 0.798. It also gave a relative viability ([11]; first compound 2.53 µM) of 0.662, a relative viability ([11]; first compound 8 µM) of 0.765 and a relative viability ([12]; first compound 0.08 µM) of 0.809. For the same compound, the relative viability ([12]; first compound 0.253 µM) was 0.808, the relative viability ([12]; first compound 0.8 µM) was 0.76 and the relative viability ([12]; first compound 2.53 µM) was 0.777. The relative viability ([12]; first compound 8 µM) was 0.712, the relative viability ([13]; first compound 0.08 µM) was 0.513 and the relative viability ([13]; first compound 0.253 µM) was 0.343. The relative viability ([13]; first compound 0.8 µM) was 0.454, the relative viability ([13]; first compound 2.53 µM) was 0.451 and the relative viability ([13]; first compound 8 µM) was 0.542.

`COc1nc(C)cnc1NS(=O)(=O)c1cccnc1-c1ccc(-c2nnco2)cc1` [Zibotentan] + Cc1nc(Nc2ncc(C(=O)Nc3c(C)cccc3Cl)s2)cc(N2CCN(CCO)CC2)n1 [Dasatinib] (partner 0.075 µM) was tested, and the relative viability ([14]; first compound 0.08 µM) was 0.533, the relative viability ([14]; first compound 0.8 µM) was 0.567 and the relative viability ([14]; first compound 2.53 µM) was 0.507. The relative viability ([5]; first compound 0.08 µM) was 0.513, the relative viability ([5]; first compound 0.253 µM) was 0.313 and the relative viability ([5]; first compound 0.8 µM) was 0.391. For the same compound, the relative viability ([5]; first compound 2.53 µM) was 0.309, the relative viability ([8]; first compound 0.08 µM) was 0.354 and the relative viability ([8]; first compound 0.253 µM) was 0.308. The relative viability ([8]; first compound 0.8 µM) was 0.309, the relative viability ([8]; first compound 2.53 µM) was 0.314 and the relative viability ([9]; first compound 0.08 µM) was 0.479. For the same compound, the relative viability ([9]; first compound 0.253 µM) was 0.839, the relative viability ([9]; first compound 0.8 µM) was 0.974 and the relative viability ([9]; first compound 2.53 µM) was 0.964. It also gave a relative viability ([11]; first compound 0.08 µM) of 0.287, a relative viability ([11]; first compound 0.253 µM) of 0.28 and a relative viability ([11]; first compound 0.8 µM) of 0.306. It also gave a relative viability ([11]; first compound 2.53 µM) of 0.292, a relative viability ([12]; first compound 0.08 µM) of 0.924 and a relative viability ([12]; first compound 0.253 µM) of 0.805. For the same compound, the relative viability ([12]; first compound 0.8 µM) was 0.943, the relative viability ([12]; first compound 2.53 µM) was 0.939 and the relative viability ([13]; first compound 0.08 µM) was 0.559. It also gave a relative viability ([13]; first compound 0.253 µM) of 0.391, a relative viability ([13]; first compound 0.8 µM) of 0.504 and a relative viability ([13]; first compound 2.53 µM) of 0.602.

Compound `O=c1cc(-c2cccc3c2Sc2ccccc2S3)oc(N2CCOCC2)c1` + Cc1nc(Nc2ncc(C(=O)Nc3c(C)cccc3Cl)s2)cc(N2CCN(CCO)CC2)n1 [Dasatinib] (partner 0.075 µM) has a relative viability ([14]; first compound 0.08 µM) of 0.488, a relative viability ([14]; first compound 0.253 µM) of 0.568 and a relative viability ([14]; first compound 0.8 µM) of 0.501. For the same compound, the relative viability ([14]; first compound 2.53 µM) was 0.57, the relative viability ([14]; first compound 8 µM) was 0.536 and the relative viability ([5]; first compound 0.08 µM) was 0.395. For the same compound, the relative viability ([5]; first compound 0.253 µM) was 0.553, the relative viability ([5]; first compound 0.8 µM) was 0.284 and the relative viability ([5]; first compound 2.53 µM) was 0.329. For the same compound, the relative viability ([5]; first compound 8 µM) was 0.389, the relative viability ([8]; first compound 0.08 µM) was 0.312 and the relative viability ([8]; first compound 0.253 µM) was 0.309. The relative viability ([8]; first compound 0.8 µM) was 0.304, the relative viability ([8]; first compound 2.53 µM) was 0.262 and the relative viability ([8]; first compound 8 µM) was 0.336. For the same compound, the relative viability ([9]; first compound 0.08 µM) was 0.895, the relative viability ([9]; first compound 0.253 µM) was 0.983 and the relative viability ([9]; first compound 0.8 µM) was 0.872. For the same compound, the relative viability ([9]; first compound 2.53 µM) was 0.71, the relative viability ([9]; first compound 8 µM) was 0.781 and the relative viability ([11]; first compound 0.08 µM) was 0.298. For the same compound, the relative viability ([11]; first compound 0.253 µM) was 0.301, the relative viability ([11]; first compound 0.8 µM) was 0.29 and the relative viability ([11]; first compound 2.53 µM) was 0.235. For the same compound, the relative viability ([11]; first compound 8 µM) was 0.254, the relative viability ([12]; first compound 0.08 µM) was 0.779 and the relative viability ([12]; first compound 0.253 µM) was 0.938. It also gave a relative viability ([12]; first compound 0.8 µM) of 0.761, a relative viability ([12]; first compound 2.53 µM) of 0.729 and a relative viability ([12]; first compound 8 µM) of 0.874. For the same compound, the relative viability ([13]; first compound 0.08 µM) was 0.454, the relative viability ([13]; first compound 0.253 µM) was 0.619 and the relative viability ([13]; first compound 0.8 µM) was 0.436. For the same compound, the relative viability ([13]; first compound 2.53 µM) was 0.408 and the relative viability ([13]; first compound 8 µM) was 0.55.
